We go through three molecules from patent US20070066590A1, “Phenyl-and pyridylpiperidine-derivatives as modulators of glucose metabolism” (priority 2003, published 2007).

A word on the IC50: it is the concentration that inhibits the measured activity by half.

In one assay the target is T1, RUP3 (Homo sapiens, UniProt Q8TDV5).
T1 construct: expressed in transfected cells
T1 sequence (Q8TDV5 with tags, fused parts or gaps): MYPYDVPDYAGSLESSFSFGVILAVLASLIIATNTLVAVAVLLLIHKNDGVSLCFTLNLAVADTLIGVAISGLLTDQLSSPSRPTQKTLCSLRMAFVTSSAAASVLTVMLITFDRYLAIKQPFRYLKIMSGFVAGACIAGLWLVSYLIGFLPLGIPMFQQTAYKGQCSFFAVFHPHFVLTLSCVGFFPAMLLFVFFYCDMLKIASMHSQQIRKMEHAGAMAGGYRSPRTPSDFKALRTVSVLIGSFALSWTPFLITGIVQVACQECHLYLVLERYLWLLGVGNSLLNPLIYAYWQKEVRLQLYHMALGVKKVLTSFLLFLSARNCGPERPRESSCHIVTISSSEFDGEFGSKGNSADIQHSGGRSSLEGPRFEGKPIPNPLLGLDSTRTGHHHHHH
As to the kind of experiment: 96-Well Cyclic AMP Membrane Assay for RUP3 (Membrane Cyclase Assay). In kind it is biochemical. The following applies: RUP3 membranes, cAMP Flashplate. The protocol:
96-Well Cyclic AMP Membrane Assay for RUP3
• 1) Adenlyl cyclase Activation Flashplate Assay kit from Perkin Elmer—96 wells (SMP004B) and ^125I tracer (NEX130) which comes with the kit. […] All buffers and membranes should be kept cold (in ice bucket) while performing assay. 20 mM Hepes, pH7.4 1 mM MgCl2 100 mM NaCl 2× Regeneration Buffer (make in binding buffer): 20 mM Phosphocreatine (1.02 gm/200 ml binding buffer) 20 units Creatine phosphokinase (4 mg/200 ml) 20 uM GTP (make up 10.46 mg/ml in binding buffer and add 200 ul/200 ml) 0.2 mM ATP (22.04 mg/200 ml) […] (44.4 mg IBMX dissolved in 1 ml 100% DMSO first and then add the entire amount to 200 ml of buffer). Regeneration buffer can be aliquotted into 40-45 ml portions (in 50 ml sterile tubes) and kept frozen for up to 2 months. Simply put the tube in a beaker with room temperature water to thaw out the regeneration buffer on the day of the assay. […] (Prior to the start of the assay, the frozen membrane pellets for both RUP3 and CMV (cells transfected with an expression plasmid containing no RUP3 sequences), are suspended in binding buffer, usually 1 ml binding buffer for 1 plate of membranes. The membranes are kept in ice all the time, and a polytron (Brinkmann polytron, model # PT-3100) is used (setting 6-7, for 15-20 seconds) to obtain a homogeneous membrane suspension.) Protein concentration is determined by Bradford protein assay kit using instructions given in the kit, using the standard supplied with the kit as a reference. […]

The subject of assay [1] is HIT-T15 cells. As to the kind of experiment: Stimulation of insulin secretion in HIT-T15 cells (GSIS). The settings on record: 15 mM glucose; level comparable to forskolin. It is filed as cell-based, hamster. The protocol: D. Stimulation of Insulin Secretion in HIT-T15 Cells
It is known that stimulation of cAMP in HIT-T15 cells causes an increase in insulin secretion when the glucose concentration in the culture media is changed from 3 mM to 15 mM. Thus, RUP3 ligands can also be tested for their ability to stimulate glucose-dependent insulin secretion (GSIS) in HIT-T15 cells. In this assay, 30,000 cells/well in a 12-well plate are incubated in culture media containing 3 mM glucose and no serum for 2 hours. The media is then changed; wells receive media containing either 3 mM or 15 mM glucose, and in both cases the media contains either vehicle (DMSO) or RUP3 ligand at a concentration of interest Some wells receive media containing 1 uM forskolin as a positive control. All conditions are tested in triplicate. Cells are incubated for 30 minutes, and the amount of insulin secreted into the media is determined by ELISA, using a kit from either Peninsula Laboratories (Cat # ELIS-7536) or Crystal Chem Inc. (Cat # 90060).
(§1) In the first of these, RUP3 agonists are used to stimulate HIT-T15 cells, which express RUP3 at significant levels, as indicated in the Northern blot shown in FIG. 4. […] In this example a RUP3 agonist can be evaluated for its ability to stimulate cAMP production in HIT cells in comparison to the level seen with the adenyl cyclase activator forskolin.

The test system of another assay is isolated rat islets. As to the kind of experiment: Stimulation of insulin secretion in isolated rat islets. The following applies: 10 μM compound; increased glucose (e.g. 300 mg/dl). In kind it is cell-based. On the procedure:
E. Stimulation of Insulin Secretion in Isolated Rat Islets
As with HIT-T15 cells, it is known that stimulation of cAMP in isolated rat islets causes an increase in insulin secretion when the glucose concentration in the culture media is changed from 60 mg/dl to 300 mg/dl. RUP3 is an endogenously expressed GPCR in the insulin-producing cells of rat islets. Thus, RUP3 ligands can also be tested for their ability to stimulate GSIS in rat islet cultures. This assay is performed as follows: • A. Select 75-150 islet equivalents (IEQ) for each assay condition using a dissecting microscope. Incubate overnight in low-glucose culture medium (Optional.) • B. Divide the islets evenly into triplicate samples of 25-40 islet equivalents per sample. Transfer to 40 μm mesh sterile cell strainers in wells of a 6-well plate with 5 ml of low (60 mg/dl) glucose Krebs-Ringers Buffer (KRB) assay medium. • C. Incubate 30 minutes (1 hour if overnight step skipped) at 37° C. and 5% CO2. Save the supernatants if a positive control for the RIA is desired. • D. Move strainers with islets to new wells with 5 ml/well low glucose KRB. […] Freeze and store at <−20° C. until insulin concentrations can be determined. • I. Insulin determinations are done as above, or by Linco Labs as a custom service, using their rat insulin RIA (Cat # RI-13K). […]

Assay [2] concerns HIT-T15 cells. The assay is described as follows: Stimulation of cAMP in HIT-T15 cells. It is filed as cell-based, hamster. The settings on record: compared with adenyl cyclase activator forskolin. The protocol:
C. Stimulation of cAMP in HIT-T15 Cells
HIT-T15 (ATCC CRL#1777) is an immortalized hamster insulin-producing cell line. These cells express RUP3 and therefore can be used to assess the ability of RUP3 ligands to stimulate or inhibit cAMP accumulation via its endogenously expressed receptor. In this assay, cells are grown to 80% confluence and then distributed into a 96-well Flashplate (50,000 cells/well) for detection of cAMP via a “cAMP Flashplate Assay” (NEN, Cat # SMP004). Briefly, cells are placed into anti-cAMP antibody-coated wells that contain either vehicle, the test ligand(s) at a concentration of interest, or 1 uM forskolin. The latter is a direct activator of adenylyl cyclase and serves as a positive control for stimulation of cAMP in HIT-T15 cells. All conditions are tested in triplicate. […] Bound ^125I-cAMP is detected using a Wallac Microbeta Counter. The amount of cAMP in each sample is determined by comparison to a standard curve, obtained by placing known concentrations of cAMP in some wells on the plate.
as §1

`CCCC1CCN(c2cc(Oc3ccc(C(=O)CC(=O)OC)cc3)ccc2[N+](=O)[O-])CC1` [Compound A30, 3-{4-[4-Nitro-3-(4-propyl-piperidin-1-yl)-phenoxy]-phenyl}-3-oxo-propionic acid methyl ester]: 185 nM corresponded to half-maximal inhibition on RUP3 (IC50). For the same molecule, the “insulin secretion in HIT cells” value in the assay with HIT-T15 cells [1] is “stimulate insulin secretion”. The “glucose-dependent insulin release in isolated rat islets” value with isolated rat islets is given as “enhance glucose-dependent insulin release”. For the same molecule, the “stimulation of cAMP in HIT-T15 cells” value in the assay on HIT-T15 cells [2] is “robust stimulator of cAMP”.

Turning to `O=[N+]([O-])c1ccc(Oc2ccc(-n3cncn3)cc2)cc1N1CCC(Sc2ccccn2)CC1` [Compound A52, 2-{1-[2-Nitro-5-(4-[1,2,4]triazol-1-yl-phenoxy)-phenyl]-piperidin-4-ylsulfanyl}-pyridine], it took 230 nM to reach half-maximal inhibition against RUP3 (IC50).

For `CC(=O)CCc1ccc(Oc2ccc([N+](=O)[O-])c(N3CCC(Sc4ccccn4)CC3)c2)cc1` [Compound A51, 4-(4-{4-Nitro-3-[4-(pyridin-2-ylsulfanyl)-piperidin-1-yl]-phenoxy}-phenyl)-butan-2-one], inhibition on RUP3 was half-maximal at 346 nM (IC50).
